Source: patent US12622917B2, “High-activity Wnt pathway inhibitor compound” (ADLAI NORTYE BIOPHARMA CO., LTD., priority 2020, dated 2026)

Tests used:
[1] = tested on: Colo205-LUC-TCF/LEF M1 reporter cell line (Wnt pathway); experiment: Colo205-LUC-TCF/LEF M1 reporter gene (luciferase) inhibition; type: cell-based; settings: 4 hours incubation, luciferase readout
Excerpt: Colo205 cell line (Cell Bank of Chinese Academy of Sciences, Cat #TCHu102) was purchased from the Cell Bank of Chinese Academy of Sciences. After expansion and subculture, in the exponential growth phase of the cells, transfection with lipo3000 liposome transfection with TCF/LEF transcription factors Driven luciferase reporter plasmid (Promega). […] The plasmid carries a resistance gene for resistance screening. Transfection was carried out in 10 cm culture dishes using conventional complete medium without resistance. After 2 days, the medium with resistance was replaced, and the culture was continued. After that, the resistant medium was replaced every 2 days, and the suspended cells were discarded. The original medium was centrifuged to remove cells and debris and retained as an adaptive medium. When the cells covered the culture dish, the cells were digested, counted, and passaged in a 96-well plate, so that the average number of cells contained in each well was 1.5/well, and the adaptive medium was used for passage. The rest of the cells were frozen. After subculture, culture for 4 hours to allow the cells to adhere to the wall, and then observe the number of cells in each well under a microscope. Wells with only 1 cell per well were labeled as monoclonal wells. Afterwards, normal culture was performed, and the culture medium was replaced every 2 days, and observed. There are holes where the monoclonal cells continue to grow in the early stage, and they are labeled twice, and can be replaced with normal resistant medium. When a monoclonal well was overgrown with a 96-well plate, it is digested and passaged to a 24-well culture plate. After the 24-well plate is overgrown, it is passaged to a 96-well plate and a 6-well plate. The cells in a 96-well plate are at least 6 wells, of which 3 wells were added with known Wnt inhibitors, and the other 3 wells were not treated. After 24 hours, the cells in the 96-well plate were added with a fluorescence detection reagent to detect the fluorescence intensity. Cell lines with fluorescent expression when not treated and decreased fluorescent light after inhibition were selected and further cultured. The Colo205-LUC-TCF/LEF-M1 cell line is one of the cell lines screened above. Its growth curve, cell shape, and cell growth state are similar to those of the original Colo205 cells, and the ratio of the fluorescent signals of the inhibitor-treated and untreated cells is the largest among all cell lines, and the ratio can reach 4-5 times when inhibited at 4 hours, which was completely suitable for the screening of Wnt inhibitors in the later stage.
The Colo205-LUC-TCF/LEF M1 cell line is a reporter tool cell stably transfected with the pGL4.49-LUC2-TCF/LEF vector. The β-catenin Wnt pathway is continuously activated. After adding the inhibitor, the Wnt pathway is inhibited. The expression of firefly luciferase regulated by the[…] cis-element decreased, and after adding the detection substrate, the detected light signal decreased accordingly, so as to detect the inhibitory effect of the compound.
To a 96-well cell culture plate, add 100 uL of the compound with a maximum concentration of 20 uM to each well, and make a 3-fold serial dilution of the compound concentration. Then 10,000 colo205 cells stably transfected with the reporter gene and 100 uL medium were inoculated into each well, and corresponding positive and negative control wells were made at the same time. Put the cells in a 5% CO2 incubator and incubate at 37° C. for 4 hours. After 4 hours, remove the culture medium, add 100 uL of reagent (Promega) containing the corresponding firefly luciferase substrate to each well, and measure the activity of luciferase reporter gene. Luminescence intensity was read with SpectraMax in full wavelength mode. […]

Colo205 = experiment: Proliferation inhibition, Wnt mutant cell line Colo205; type: cell-based; settings: Homo sapiens, COLO 205; Colo205, Wnt pathway-dependent, 96 hours; read-out: Antiproliferative IC50 Colo205
Excerpt: (§1) The cell lines used in the experiment are Colo205 and DU4475 cell lines whose Wnt pathway is continuously activated and whose proliferation is Wnt pathway-dependent; while the BELA and RKO cell lines, whose Wnt pathway is not activated under normal circumstances and the proliferation is independent of Wnt pathway, as control cell lines. It is Judged that the inhibitory effect of the compound of the present invention on Wnt-dependent proliferation is not caused by other non-specific toxicity.
(§2) Treat the Colo205, Du4475, HELA and RKO cell lines cultured in their respective mediums in the logarithmic growth phase, collect the cells and prepare a uniform cell suspension of known concentration, and then add it to the 96-well cell culture plate Cell suspension, so that each well contains 1000 cells. Put it into a 5% CO2 incubator and incubate at 37° C. for 20-24 h. On the second day, the fully dissolved, 3-fold serially diluted compound was added to each cell culture well, so that the final maximum concentration in the cell culture well was 20 uM, and the culture was continued for 96 hours. In this test, Promega's cell viability detection test is used for detection. The more the cells proliferate, the stronger the final signal intensity will be. The detection instrument is SpectraMax, full wavelength mode. The wells only added with DMSO were used as positive control wells, and the wells that were not inoculated with cells were used as negative control wells. […] The IC50 value of cell proliferation inhibition was used to evaluate the inhibitory effect of the compound on the Wnt pathway and the toxic effect on normal cells (Table 2).

RKO = experiment: Proliferation inhibition, non-Wnt mutant control cell line RKO; type: cell-based; settings: Homo sapiens, Wnt-independent control cell line, 96 hours, read-out: Antiproliferative IC50 RKO
Excerpt: as §1, §2

DU4475 = experiment: Proliferation inhibition, Wnt mutant cell line DU4475; type: cell-based; settings: Homo sapiens, DU-4475; DU4475, Wnt pathway-dependent, 96 hours; read-out: Antiproliferative IC50 DU4475
Excerpt: as §1, §2

HepG2 = experiment: Proliferation inhibition, HepG2 cell line; type: cell-based; settings: Homo sapiens; HepG2 cells, 96 hours culture, cell viability detection; read-out: Antiproliferative IC50 HepG2
Excerpt: (§3) The cell lines used in the test are NCI-H929 and HepG2 cell lines whose Wnt pathway is continuously activated and whose proliferation is Wnt pathway-dependent; the inhibitory effect of the compound of the present invention on Wnt-dependent proliferation is judged.
(§4) Treat the NCI-H929 and HepG2 cell lines cultured in their respective mediums in the logarithmic growth phase, collect the cells and prepare a uniform cell suspension of known concentration, and then add the cell suspension to the 96-well cell culture plate solution so that each well contains 4000 cells. Put it into a […] incubator and incubate at 37° C. for 20-24 h. On the second day, the fully dissolved, 3-fold serially diluted compound was added to each cell culture well, so that the final maximum concentration in the cell culture well was 20 uM, and the culture was continued for 96 hours. In this test, Promega's cell viability detection test is used for detection. The more the cells proliferate, the stronger the final signal intensity will be. The detection instrument is SpectraMax, full wavelength mode. The wells only added with DMSO were used as positive control wells, and the wells that were not inoculated with cells were used as negative control wells. […] The IC50 value of cell proliferation inhibition was used to evaluate the inhibitory effect of the compound on the Wnt pathway and the toxic effect on normal cells (Table 3).

NCI-H929 = experiment: Proliferation inhibition, NCI-H929 cell line; type: cell-based, human; settings: Homo sapiens; NCI-H929 cells, 96 hours culture, cell viability detection; read-out: Antiproliferative IC50 NCI-H929
Excerpt: as §3, §4

Row | Structure (SMILES) | IC50 [1] [nM] | IC50 (Colo205) [nM] | IC50 (RKO) [nM] | IC50 (DU4475) [nM] | IC50 (HepG2) [nM] | IC50 (NCI-H929) [nM]
1 | Cc1cc(CNc2nc3c4c(n2)N(C)[C@@H](C)C(=O)N4CCC3)cnc1Oc1ccc(C(F)(F)F)nc1 [103 (W195)] | 36 | 19 | > 10000 | 11 | 68 | 
2 | CCN1c2nc(NCc3ccc(Oc4ccc(C(F)(F)F)nc4)nc3)nc3c2N(CCC3)C(=O)[C@@H]1C [116 (W249), (S)-4-ethyl-5-methyl-2-(((6-((6-(trifluoromethyl)pyridin-3-yl)oxo)pyridin-3-yl)methyl)amino)-4,5,9,10-tetrahydro-6H,8H-pyrido[3,2,1-de]pteridin-6-one] | 30 | 36 | > 10000 | 46 | 69 | 17
3 | C[C@H]1C(=O)N2CCCc3nc(NCc4ccc(Oc5cc(C(F)(F)F)nn5C5CC5)nc4)nc(c32)N1C [130 (W354), (S)-2-(((6-((1-cyclopropyl-3-(trifluoromethyl)-1H-pyrazol-5-yl)oxo)pyridin-3-yl)methyl)amino)-4,5-dimethyl-4,5,9,10-tetrahydro-6H,8H-pyrido[3,2,1-de]pteridin-6-one] | < 0.5 | < 0.5 | > 10000 |  | < 0.5 | 19
4 | CCn1nc(C(F)(F)F)cc1Oc1ccc(CNc2nc3c4c(n2)N(C)[C@@H](C)C(=O)N4CCC3)cn1 [152 (W336)] | 4 | 2.7 | > 10000 |  | 4.4 | 36
5 | CN1c2nc(NCc3ccc(Oc4cnc(C(F)(F)F)nc4)nc3)nc3c2N(CCC3)C(=O)[C@@H]1C(C)(C)C [160 (W362)] | 3 | < 0.5 | 7150 |  | 3.5 | 48
6 | CC(C)N1c2nc(NCc3ccc(Oc4cnc(C(F)(F)F)nc4)nc3)nc3c2N(CCC3)C(=O)[C@@H]1C [170 (W368)] | 17 | 7 | > 10000 |  | 31 | 94
7 | COC[C@@]1(C)C(=O)N2CCCc3nc(NCc4ccc(Oc5ccc(C(F)(F)F)nc5)nc4)nc(c32)N1C [179 (W375)] | 23 |  | > 10000 |  | 11 | 45
8 | COC[C@@]1(C)C(=O)N2CCCc3nc(NCc4ccc(Oc5cnc(C(F)(F)F)nc5)nc4)nc(c32)N1C [180 (W386)] | 23 | 14.6 | > 10000 |  | 40 | 82
9 | [2H]C([2H])([2H])OC[C@@]1(C)C(=O)N2CCCc3nc(NCc4ccc(Oc5cnc(C(F)(F)F)nc5)nc4)nc(c32)N1C([2H])([2H])[2H] [181 (W396)] | 18 | 11.9 | > 10000 |  | 81 | 25
10 | [2H]C([2H])([2H])N1c2nc(NCc3ccc(Oc4cnc(C(F)(F)F)nc4)nc3)nc3c2N(CCC3)C(=O)C1CC(F)(F)F (centres unmarked) [192 (W324)] | 23 | 3.2 | > 10000 |  | 4 | 12
